Measurements taken from US20070135307A1, “Inhibition of tuber sprouting” (ACETO AGRICULTURAL CHEMICALS CORP., priority 2005, published 2007).

Assays:
[1] = system: Russet Norkotah potato tubers; test: Sprout inhibition of stored potato tubers, Russet Norkotah (% OK for fresh pack); type: in vivo, Solanum tuberosum
From the text: (§1) The storage system was designed to duplicate a large commercial storage facility in miniature. Drums containing 150-200 pounds of potatoes were sealed and housed in a building in which temperature and humidity could be controlled. Formed in each drum is an inlet in which untreated air (ventilation air) was introduced under a perforated floor to the drum. The ventilation air moves through the pile of potatoes and is exhausted from the top of the drum to the outside of the building.
(§2) This storage ventilation was shut down for a 24 hour duration during and directly after the treatment of the chemicals. Then it is maintained for the duration of the trial, with ventilation air forced through the drums at a rate of 0.5 cubic feet per minute on a three-hour on and a three-hour off schedule.
(§3) In the spray application technique the formulations were mixed with water and sprayed on the newly harvested tubers at a rate of 5 and 10 parts per million (weight of the active to weight of the potatoes) mixed in a water carrier. The mixture was applied at 1 quart per ton of potatoes. The spray was applied via a hand held spray gun propelled with compressed air as the tubers were rotating in a cement mixer drum. This insured that all surface area is coated with the active ingredient.
(§4) The Fogs were all applied with thermal foggers built to duplicate applications of commercial thermal fogging techniques.
(§5) The custom thermal fogger's heat source was an electric hot plate set at 500 degrees F. This temperature is monitored throughout the application with a thermal couple that is inserted in a cavity just below the surface where the chemical is placed. A chamber was attached to the hot plate. A fan was mounted to the top of the chamber. The fogger was attached to the storage container with flexible tubing.
(§6) The fog was delivered to each drum through separate ports. Through the bottom port of the storage drum a perforated stinger was installed that runs the length of the drum. Flexible tubing delivered the fog air mixture from the fogger. The fog air mixture was returned to the thermal fogger through a second flexible tubing that was attached from the top of the storage drum to the bottom of the thermal fogger. The air fog mixture was recirculated through the system for five minutes.
(§7) The potatoes were monitored for sprout activity on a regular basis after treatment. When early sprout activity was observed the potatoes were first evaluated. Then at approximately 30 day intervals, 60 tubers were randomly selected from each treatment. Each tuber was rated for the length of the longest sprout on each tuber. The scale used for the rating system as is follows: • 0-Not Peeping=no sprout or swelling of eye tissue evident. • 1-Peeping=swelling of eye tissue up to a sprout length of 3 mm • 2-sprout length from 3 mm to […]. • 3-sprout length from 1 cm to 3 cm. • 4-sprout length from 3 cm to 5 cm. • 5-sprout length from 5 cm and longer
(§8) Results of each set of 60 tubers were recorded into 6 subsets of 10 tubers each (replicates). The data is summarized into PERCENT OK RE: FRESHPCK (Fresh pack). The PERCENT OK RE: FRESHPCK is the percent of the tubers that are NOT PEEPING and PEEPING categories combined together (i.e., the addition of the percentage of potatoes rated that are in the “0”-Not peeping=(no sprout or swelling of the eye tissue evident) plus “1” Peeping=(swelling of the eye tissue up to a sprout length of 3 mm.).
(§9) Analysis times are approximate days after harvest (DAH)

[2] = system: Russet Burbank potato tubers; test: Sprout inhibition of stored potato tubers, Russet Burbank (% OK for fresh pack); type: in vivo, Solanum tuberosum
From the text: as §1, §2, §3, §4, §5, §6, §7, §8, §9

Structure (SMILES)	% OK For Fresh Pack, Dormant + sprout up to 3 mm ([1]; 5 ppm Spray, 53 DAH) [%]	% OK For Fresh Pack, Dormant + sprout up to 3 mm ([1]; 5 ppm Spray, 85 DAH) [%]	% OK For Fresh Pack, Dormant + sprout up to 3 mm ([1]; 5 ppm Spray, 107 DAH) [%]	% OK For Fresh Pack, Dormant + sprout up to 3 mm ([1]; 10 ppm Spray, 53 DAH) [%]	% OK For Fresh Pack, Dormant + sprout up to 3 mm ([1]; 10 ppm Spray, 85 DAH) [%]	% OK For Fresh Pack, Dormant + sprout up to 3 mm ([1]; 10 ppm Spray, 107 DAH) [%]	% OK For Fresh Pack, Dormant + sprout up to 3 mm ([2]; 5 ppm Spray, 132 DAH) [%]	% OK For Fresh Pack, Dormant + sprout up to 3 mm ([2]; 5 ppm Spray, 161 DAH) [%]	% OK For Fresh Pack, Dormant + sprout up to 3 mm ([2]; 5 ppm Spray, 191 DAH) [%]	% OK For Fresh Pack, Dormant + sprout up to 3 mm ([2]; 5 ppm Spray, 223 DAH) [%]	% OK For Fresh Pack, Dormant + sprout up to 3 mm ([2]; 5 ppm Spray, 252 DAH) [%]	% OK For Fresh Pack, Dormant + sprout up to 3 mm ([2]; 5 ppm Spray, 283 DAH) [%]	other results
CCOC1Oc2ccc(OS(C)(=O)=O)cc2C1(C)C (racemic) [ETH, (RS)-2-ethoxy-2,3-dihydro-3,3-dimethylbenzofuran-5-yl methanesulfonate]	68.3	11.7	0.0	93.3	33.3	3.3							
CC(C)(C)[C@@H](O)[C@@H](Cc1ccc(Cl)cc1)n1cncn1 (racemic) [PAC, (2RS,3RS)-1-(4-chlorophenyl)-4,4-dimethyl-2-(1H-1,2,4-triazol-1-yl)pentan-3-ol]	93.3	13.3	1.7	86.7	13.3	0.0							
CCCCC(CC)COC(=O)COc1ccc(Cl)cc1Cl (stereo not drawn) [2,4 D LV, Isoocotyl (2-ethylhexyl) ester of 2,4-dichlorophenoxyacetic acid]							96.7	30.0	8.3	0.0	0.0	0.0	
O=C(O)CCCOc1ccc(Cl)cc1Cl [2,4 DB, Dimethyl Amine of 4-(2,4-Dichloropenoxy) butyric acid]	81.7	3.3	0.0	91.7	11.7	0.0							
CC(C)OC(=O)Nc1cccc(Cl)c1 [CIPC 98A, isopropyl 3-chlorophenylcarbamate]													% OK For Fresh Pack, Dormant + sprout up to 3 mm ([2]; 11 ppm Fog, 132 DAH): 100.0%; % OK For Fresh Pack, Dormant + sprout up to 3 mm ([2]; 11 ppm Fog, 161 DAH): 26.7%; % OK For Fresh Pack, Dormant + sprout up to 3 mm ([2]; 11 ppm Fog, 191 DAH): 0.0%; % OK For Fresh Pack, Dormant + sprout up to 3 mm ([2]; 11 ppm Fog, 223 DAH): 0.0%; % OK For Fresh Pack, Dormant + sprout up to 3 mm ([2]; 11 ppm Fog, 252 DAH): 0.0%; % OK For Fresh Pack, Dormant + sprout up to 3 mm ([2]; 11 ppm Fog, 283 DAH): 0.0%; % OK For Fresh Pack, Dormant + sprout up to 3 mm ([2]; 16.6 ppm Fog, 132 DAH): 100.0%; % OK For Fresh Pack, Dormant + sprout up to 3 mm ([2]; 16.6 ppm Fog, 161 DAH): 26.7%; % OK For Fresh Pack, Dormant + sprout up to 3 mm ([2]; 16.6 ppm Fog, 191 DAH): 0.0%; % OK For Fresh Pack, Dormant + sprout up to 3 mm ([2]; 16.6 ppm Fog, 223 DAH): 0.0%; % OK For Fresh Pack, Dormant + sprout up to 3 mm ([2]; 16.6 ppm Fog, 252 DAH): 0.0%; % OK For Fresh Pack, Dormant + sprout up to 3 mm ([2]; 16.6 ppm Fog, 283 DAH): 0.0%
CC(C)OC(=O)Nc1cccc(Cl)c1 [CIPC A, isopropyl 3-chlorophenylcarbamate]													% OK For Fresh Pack, Dormant + sprout up to 3 mm ([1]; 16.6 ppm Fog, 53 DAH): 100.0%; % OK For Fresh Pack, Dormant + sprout up to 3 mm ([1]; 16.6 ppm Fog, 85 DAH): 86.7%; % OK For Fresh Pack, Dormant + sprout up to 3 mm ([1]; 16.6 ppm Fog, 107 DAH): 86.7%
CCNC(=O)[C@@H](C)OC(=O)Nc1ccccc1 [Car, Ethyl-2-(((phenylamino)carbonyl)oxy)promanamide]							93.3	8.3	0.0	0.0	0.0	0.0	
CC(=O)Nc1cc(NS(=O)(=O)C(F)(F)F)c(C)cc1C [MEF, N-[2,4-dimethyl-5-[[(trifluoromethyl)sulfonyl]amino]phenyl]acetamide]	81.7	11.7	0.0	93.3	13.3	0.0							
C#CC(C)(C)NC(=O)c1cc(Cl)cc(Cl)c1 [PRO, 3,5-dichloro-N-(1,1-dimethyl-2-propynyl)benzamide]	100.0	90.0	18.3	100.0	80.0	28.3	100.0	83.3	71.7	61.7	60.0	50.0	
